One data set deals with SAS cells. Nature of the data set: SAS CTG proliferation assay (120 h) (HNSCC, wt amplified). It counts as cell-based. The method in brief:
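Viability measured by CellTiter-Glo luminescence, normalized to DMSO wells, after 120 h compound treatment of SAS cells. Cells grown in DMEM:F12 plus 10% FCS at 300 cells per well, dosed the day after seeding. Four-parameter fit gives IC50.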

Data set [1] concerns KRAS G12C-dependent Ba/F3 cells. Nature of the data set: Ba/F3 proliferation assay, KRAS G12C. The format is cell-based. The conditions noted are these: Mus musculus, BaF3, 72 h, AlamarBlue. The gist of the method:
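Proliferation of mutant-KRAS-driven Ba/F3 cells cultured without IL-3 is followed with AlamarBlue after compound addition. Curves are fitted from duplicate wells.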

The nature of data set [2]: Metabolic (microsomal) stability assay, human liver microsomes (HLM). It counts as in vitro ADME. Particulars: predicted clearance as percent of liver blood flow, 1 μM. The gist of the method: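 LC-MS/MS tracked parent disappearance at 0, 5, 15, 30 and 60 min in NADPH-initiated incubations with 1 mg/mL human microsomal protein and 1 μM compound at 37°C, pH 7.5. First-order fits gave intrinsic clearance, which was scaled up and reported as % QH. NADPH-free controls were also run.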

For the next data set, the system named is NCI-H358 cells. Nature of the data set: NCI-H358 CTG proliferation assay (120 h) (NSCLC, G12C). It counts as cell-based, human. The conditions noted are these: Homo sapiens. The method in brief:
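IC50 values derive from four-parameter nonlinear regression of CellTiter-Glo viability (RLU relative to DMSO wells) after 120 h of exposure. Cells were plated in RPMI-1640 + 10% FCS at 2000 per well (assay 1) or 200 per well (assay 2). Untreated cells were measured at compound addition as T0.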

Data set [3] in a line: Solubility measurement (DMSO solution method), McIlvaine buffer pH 4.5 or 6.8. The format is physicochemical. The conditions noted are these: aqueous buffer, kinetic from dmso stock, DMSO stock diluted to 250 μM, 24 h shaking at ambient temperature. The gist of the method:
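Filtrate concentration by LC-UV, calibrated to a known-concentration reference dissolved completely in acetonitrile/water (1:1). Samples came from 250 µM final dilutions of DMSO stock in pH 4.5 or 6.8 McIlvaine buffer, shaken 24 h at ambient temperature, then filtered.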

The mark [4] stands for this setting: assay 2, CTG, read-out: H358 (assay 2) IC50.
Setting [5] is: McIlvaine buffer pH 4.5, read-out: solubility pH 4.5.
[6] abbreviates: McIlvaine buffer pH 6.8, read-out: solubility pH 6.8.

Like-named read-outs stand apart in the source and are kept apart here. Some results are limits rather than exact numbers.

The values below come from patent publication US20240174690A1, “ANNULATED 2-AMINO-3-CYANO THIOPHENES AND DERIVATIVES FOR THE TREATMENT OF CANCER” (BOEHRINGER INGELHEIM INTERNATIONAL GMBH, priority 2021, published 2024).

On to `C[C@H](Oc1cc(-c2ccn(CC(C)(C)O)n2)nc(-c2onc3c2CCC[C@@]32CCCc3sc(N)c(C#N)c32)n1)[C@@H]1CCCN1C` [I-26], for which the IC50 in the data set with SAS cells stood at 89 nM; in data set [1], 17 nM; with NCI-H358 cells (setting [4]), 140 nM. Moreover, the “HLM QH” value in data set [2] is less than 24%.

With `C[C@H](Oc1cc(N2CCNCC2)nc(-c2noc3c2CCC[C@@]32CCCc3sc(N)c(C#N)c32)n1)[C@@H]1CCCN1C` [II-45], the solubility at 24 h in data set [3] (setting [5]) is more than 135 µg/mL; in data set [3] (setting [6]) it was more than 118 µg/mL. In addition, the IC50 in the data set with SAS cells was 530 nM; in data set [1], 606 nM; in the data set with NCI-H358 cells (assay 1, CTG, read-out: H358 (assay 1) IC50) it was 969 nM; in the data set on NCI-H358 cells (setting [4]) it was more than 25000 nM.

For the compound `CN[C@H]1CCN(c2cc(O[C@@H](C)[C@@H]3CCCN3C)nc(-c3noc4c3CCC[C@@]43CCCc4sc(N)c(C#N)c43)n2)C1` [II-35], the IC50 with SAS cells was determined as 4730 nM; in data set [1], 1290 nM; in the data set with NCI-H358 cells (setting [4]) it was 457 nM. Moreover, the “HLM QH” value in data set [2] was less than 24%.

In the case of `C[C@H]1CN(C)CCCN1c1cc(N2CC[C@H](N(C)C)C2)nc(-c2noc3c2CCC[C@@]32CCCc3sc(N)c(C#N)c32)n1` [II-16], the results for the solubility at 24 h in data set [3] (setting [5]) and in data set [3] (setting [6]) were more than 147 µg/mL and more than 132 µg/mL, respectively. For the same compound, the IC50 was found to be 3870 nM in the data set on SAS cells and 1570 nM in data set [1]. The “HLM QH” value in data set [2] was less than 24%.

For `C[C@H](Oc1cc(N2CCN(CCO)CC2)nc(-c2noc3c2CCC[C@@]32CCCc3sc(N)c(C#N)c32)n1)[C@@H]1CCCN1C` [II-8], the solubility at 24 h in data set [3] (setting [5]) is more than 141 µg/mL; in data set [3] (setting [6]) it was more than 132 µg/mL. Also, the results for the IC50 (in the data set with SAS cells; in data set [1]) were 534 nM and 301 nM, respectively. Moreover, the “HLM QH” value in data set [2] is recorded as less than 24%.

As to `C[C@H](Oc1cc(-n2ccc(C(=O)N[C@H]3CCOC3)n2)nc(-c2onc3c2CCC[C@@]32CCCc3sc(N)c(C#N)c32)n1)[C@@H]1CCCN1C` [I-57], the IC50 in data set [1] was determined as 1 nM; in the data set on NCI-H358 cells (setting [4]), 6 nM.

For `C[C@H](Oc1cc(N2C[C@@H](N(C)C)[C@@H](F)C2)nc(-c2noc3c2CCC[C@@]32CCCc3sc(N)c(C#N)c32)n1)[C@@H]1CCCN1C` [II-11], the solubility at 24 h was more than 150 µg/mL in data set [3] (setting [5]) and more than 141 µg/mL in data set [3] (setting [6]). Besides, the IC50 in the data set with SAS cells came out at 1320 nM; in data set [1], 241 nM. Moreover, in data set [2], the “HLM QH” value was less than 24%.

For `C[C@@H]1CN(c2cc(O[C@@H](C)[C@@H]3CCCN3C)nc(-c3noc4c3CCC[C@@]43CCCc4sc(N)c(C#N)c43)n2)C[C@H](C)N1` [II-36], the figures for the solubility at 24 h in data set [3] (setting [5]) and in data set [3] (setting [6]) were more than 146 µg/mL and more than 140 µg/mL, respectively. Besides, the results for the IC50 (in the data set with SAS cells; in data set [1]) were 179 nM and 330 nM, respectively. The “HLM QH” value in data set [2] is reported as less than 24%.

In the case of `C[C@H](Oc1cc(N2CC[C@H](N(C)C)C2)nc(-c2noc3c2CCC[C@@]32CCCc3sc(N)c(C#N)c32)n1)[C@@H]1C[C@@H](F)CN1C` [II-15], the results for the solubility at 24 h in data set [3] (setting [5]) and in data set [3] (setting [6]) were more than 144 µg/mL and more than 130 µg/mL, respectively. For the same compound, the IC50 with SAS cells was determined as 1300 nM; in data set [1], 323 nM. In data set [2], the “HLM QH” value is on record as less than 24%.

Turning to `[2H]C([2H])([2H])N1C[C@H](F)C[C@H]1[C@H](C)Oc1cc(N2CCNC3(CC3)C2)nc(-c2noc3c2CCC[C@@]32CCCc3sc(N)c(C#N)c32)n1` [II-208], the IC50 turned out to be 718 nM with SAS cells, 112 nM in data set [1] and 99 nM in the data set on NCI-H358 cells (setting [4]). Moreover, in data set [2], the “HLM QH” value is 48%.

Turning to `C[C@H](Oc1cc(N2CCN(C)C3(CCC3)C2)nc(-c2onc3c2CCC[C@@]32CCCc3sc(N)c(C#N)c32)n1)[C@@H]1CCCN1C` [I-44], the half-maximal inhibitory concentration (IC50) in the data set on SAS cells stood at 1200 nM; in data set [1] it was 509 nM; in the data set with NCI-H358 cells (setting [4]), 2330 nM. Also, in data set [2], the “HLM QH” value was less than 24%.

Consider `C[C@H](Oc1cc(N2CC(N(C)C)C2)nc(-c2noc3c2CCC[C@@]32CCCc3sc(N)c(C#N)c32)n1)[C@@H]1CCCN1C` [II-7], for which the figures for the solubility at 24 h in data set [3] (setting [5]) and in data set [3] (setting [6]) were more than 141 µg/mL and more than 134 µg/mL, respectively. Besides, the IC50 with SAS cells turned out to be 1190 nM; in data set [1], 277 nM. Further, in data set [2], the “HLM QH” value is less than 24%.

Broadly, the IC50 is the concentration at which inhibition is half-maximal. The solubility is the concentration that dissolves in the medium under given conditions.
